Measured values as given in patent US10149887B2, “Peptides and peptidomimetics in combination with t cell activating and/or checkpoint inhibiting agents for cancer treatment” (CanBas Co., Ltd., priority 2015, dated 2018).
Like-named read-outs stand apart in the source and are kept apart here. Square brackets hold non-standard residues; d marks the D form. Peptide text beside a SMILES is read from it. Phe(F5) = N[C@@H](Cc1c(F)c(F)c(F)c(F)c1F)C(=O)O; dPhe(F5) = N[C@H](Cc1c(F)c(F)c(F)c(F)c1F)C(=O)O; Cha = N[C@@H](CC1CCCCC1)C(=O)O; dCha = N[C@H](CC1CCCCC1)C(=O)O; Aun = NCCCCCCCCCCC(=O)O

What was measured:
Jurkat cells [1] = test: Side effect of peptide used alone: Jurkat cell cycle disturbance (flow cytometry); assay type: cell-based
Experimental: Cell-cycle analysis The cell cycle status of the cells treated with bleomycin or adriamcin were analyzed by flow cytometry as described by Kawabe (1997) Nature 385:454-458. In brief, two million cells were re-suspended and incubated in 200 μl Krishan's solution (0.1% Sodium citrate, 50 μg/ml PI, 20 μg/ml RNase A and 0.5% NP-40) for 1 hr at 4° C. and analyzed by a flow cytometry, FACScan™ (Beckton Dickinson, Mountain View, Calif.) with the program CELLQuest™ (Beckton Dickinson).
(§1) The “Appearance of side effect when used alone” indicates the peptide/peptidomimetic dose that produced Jurkat cell cycle disturbance, i.e., the appearance of significant amounts of SubG1 cells (dead cells) or cells in which the DNA content of each varies more than usual. […] The “G2 abrogating dose” indicates the peptide/peptidomimetic dose with 40 μg/ml bleomycine that produced detectable G2 checkpoint abrogation activity following treatment for 24 hours. The “Appearance of side effect when used with colchicine” indicates the peptide/peptidomimetic dose with 5 μg/ml colchicine that produced Jurkat cell cycle disturbance following treatment for 24 hours.

Jurkat cells [2] = test: M phase checkpoint abrogation / non specific toxicity, colchicine treated Jurkat cells; assay type: cell-based; conditions: dose with 5 μg/ml colchicine that produced Jurkat cell cycle disturbance, 24 hours
Experimental: Flow cytometry analysis of M phase checkpoint abrogation by the compounds was performed using human T cell leukemia Jurkat cell line treated with colchicine (5 μg/ml or 0.5 μg/ml) and various doses of peptide/peptidomimetics for 24 hr (FIG. 12). The DNA of the cells was stained and analyzed by flow cytometry as described above.
as §1
A comparison between G2 checkpoint abrogating activity and non specific toxicity (M checkpoint abrogation) by CB501 was performed. In brief, Jurkat cells were treated with 40 μg/ml bleomycin or 0.5 μg/ml colchicine for G2 checkpoint abrogating activity and non specific toxicity, respectively. The DNA amount in each of the treated cells was analyzed by flow cytometry, as previously described.

[3] = dose that produced Jurkat cell cycle disturbance, peptide alone

| SMILES | Appearance of side effect when used alone (Jurkat cells [1]; [3]) | Appearance of side effect when used with Colchicine (Jurkat cells [2]) | Appearance of side effect when used alone (Jurkat cells [1]) |
| --- | --- | --- | --- |
| N=C(N)NCCC[C@H](NC(=O)CNC(=O)[C@@H](N)Cc1ccc(O)cc1)C(=O)N[C@@H](CCCCN)C(=O)N[C@@H](CCCCN)C(=O)N[C@@H](CCCNC(=N)N)C(=O)N[C@@H](CCCNC(=N)N)C(=O)N[C@@H](CCC(N)=O)C(=O)N[C@@H](CCCNC(=N)N)C(=O)N[C@@H](CCCNC(=N)N)C(=O)N[C@@H](CCCNC(=N)N)C(=O)N[C@@H](CC1CCCCC1)C(=O)N[C@@H](Cc1c(F)c(F)c(F)c(F)c1F)C(=O)N[C@@H](CCCNC(=N)N)C(=O)N[C@@H](CO)C(=O)N1CCC[C@H]1C(=O)N[C@@H](CO)C(=O)N[C@@H](Cc1ccc(O)cc1)C(=O)O [CBP420, (1-Tyr)(1-Gly)(1-Arg)(1-Lys)(1-Lys)(1-Arg)(1-Arg)(1-Gln)(1-Arg)(1-Arg)(1-Arg)(1-Cha)(1-Phe-2,3,4,5,6-F)(1-Arg)(1-Ser)(1-Pro)(1-Ser)(1-Tyr)] | >50 µM | ≥50 µM | – |
| N=C(N)NCCC[C@H](NC(=O)[C@H](CCCNC(=N)N)NC(=O)[C@@H](N)CCCNC(=N)N)C(=O)N[C@@H](CC1CCCCC1)C(=O)N[C@@H](Cc1c(F)c(F)c(F)c(F)c1F)C(=O)N[C@@H](CCCNC(=N)N)C(=O)N[C@@H](CO)C(=O)N1CCC[C@H]1C(=O)N[C@@H](CO)C(=O)N[C@@H](Cc1ccc(O)cc1)C(=O)N[C@@H](Cc1ccc(O)cc1)C(=O)O [CBP430, (1-Arg)(1-Arg)(1-Arg)(1-Cha)(1-Phe-2,3,4,5,6-F)(1-Arg)(1-Ser)(1-Pro)(1-Ser)(1-Tyr)(1-Tyr)] (H-RRR[Cha][Phe(F5)]RSPSYY-OH; N-terminus and C-terminus assumed) | – | – | >50 µM |
| N=C(N)NCCC[C@H](NC(=O)[C@H](CCCNC(=N)N)NC(=O)[C@H](CCCNC(=N)N)NC(=O)[C@H](CCC(N)=O)NC(=O)[C@H](CCCNC(=N)N)NC(=O)[C@@H](N)CCCNC(=N)N)C(=O)N[C@@H](CC1CCCCC1)C(=O)N[C@@H](Cc1c(F)c(F)c(F)c(F)c1F)C(=O)N[C@@H](CCCNC(=N)N)C(=O)N[C@@H](CO)C(=O)N1CCC[C@H]1C(=O)N[C@@H](CO)C(=O)N[C@@H](Cc1ccc(O)cc1)C(=O)N[C@@H](Cc1ccc(O)cc1)C(=O)O [CBP431, (1-Arg)(1-Arg)(1-Gln)(1-Arg)(1-Arg)(1-Arg)(1-Cha)(1-Phe-2,3,4,5,6-F)(1-Arg)(1-Ser)(1-Pro)(1-Ser)(1-Tyr)(1-Tyr)] (H-RRQRRR[Cha][Phe(F5)]RSPSYY-OH; N-terminus and C-terminus assumed) | – | – | >50 µM |
| N=C(N)NCCC[C@H](NC(=O)CNC(=O)[C@@H](N)Cc1ccc(O)cc1)C(=O)N[C@@H](CCCCN)C(=O)N[C@@H](CCCCN)C(=O)N[C@@H](CCCNC(=N)N)C(=O)N[C@@H](CCCNC(=N)N)C(=O)N[C@@H](CCC(N)=O)C(=O)N[C@@H](CCCNC(=N)N)C(=O)N[C@@H](CCCNC(=N)N)C(=O)N[C@@H](CCCNC(=N)N)C(=O)N[C@@H](CC1CCCCC1)C(=O)N[C@@H](Cc1c(F)c(F)c(F)c(F)c1F)C(=O)NCCCCCCCCCCC(=O)N[C@@H](Cc1ccc(O)cc1)C(=O)N[C@@H](Cc1ccc(O)cc1)C(=O)O [CBP440, (1-Tyr)(1-Gly)(1-Arg)(1-Lys)(1-Lys)(1-Arg)(1-Arg)(1-Gln)(1-Arg)(1-Arg)(1-Arg)(1-Cha)(1-Phe-2,3,4,5,6-F)(1-aminoundecanoic acid)(1-Tyr)(1-Tyr)] | >12.5 µM | >3.125 µM | – |
| N=C(N)NCCC[C@@H](NC(=O)[C@@H](CCCCN)NC(=O)[C@@H](CCCCN)NC(=O)[C@@H](CCCNC(=N)N)NC(=O)[C@@H](CCCNC(=N)N)NC(=O)[C@@H](CCC(N)=O)NC(=O)[C@@H](CCCNC(=N)N)NC(=O)[C@@H](CCCNC(=N)N)NC(=O)[C@@H](CCCNC(=N)N)NC(=O)[C@@H](CC1CCCCC1)NC(=O)[C@@H](Cc1c(F)c(F)c(F)c(F)c1F)NC(=O)CCCCCCCCCCNC(=O)[C@H](Cc1ccc(O)cc1)NC(=O)[C@@H](N)Cc1ccc(O)cc1)C(=O)NCC(=O)N[C@H](Cc1ccc(O)cc1)C(=O)O [CBP460, (1-Tyr)(1-Tyr)(1-aminoundecanoic acid)(d-Phe-2,3,4,5,6-F)(d-Cha)(d-Arg)(d-Arg)(d-Arg)(d-Gln)(d-Arg)(d-Arg)(d-Lys)(d-Lys)(d-Arg)(1-Gly)(d-Tyr)] (H-YY[Aun][dPhe(F5)][dCha][dR][dR][dR][dQ][dR][dR][dK][dK][dR]G[dY]-OH; N-terminus and C-terminus assumed) | >3.125 µM | >3.125 µM | – |
| N=C(N)NCCC[C@@H](NC(=O)[C@@H](CCCCN)NC(=O)[C@@H](CCCCN)NC(=O)[C@@H](CCCNC(=N)N)NC(=O)[C@@H](CCCNC(=N)N)NC(=O)[C@@H](CCC(N)=O)NC(=O)[C@@H](CCCNC(=N)N)NC(=O)[C@@H](CCCNC(=N)N)NC(=O)[C@@H](CCCNC(=N)N)NC(=O)[C@@H](CC1CCCCC1)NC(=O)[C@@H](Cc1c(F)c(F)c(F)c(F)c1F)NC(=O)CCCCCCCCCCNC(=O)[C@@H](N)Cc1ccc(O)cc1)C(=O)NCC(=O)N[C@H](Cc1ccc(O)cc1)C(=O)O [CBP461, (1-Tyr)(1-aminoundecanoic acid)(d-Phe-2,3,4,5,6-F)(d-Cha)(d-Arg)(d-Arg)(d-Arg)(d-Gln)(d-Arg)(d-Arg)(d-Lys)(d-Lys)(d-Arg)(1-Gly)(d-Tyr)] (H-Y[Aun][dPhe(F5)][dCha][dR][dR][dR][dQ][dR][dR][dK][dK][dR]G[dY]-OH; N-terminus and C-terminus assumed) | >6.25 µM | >6.25 µM | – |
| N[C@@H](Cc1ccc(O)cc1)C(=O)NCCCCCCCCCCC(=O)N[C@H](Cc1c(F)c(F)c(F)c(F)c1F)C(=O)N[C@H](CC1CCCCC1)C(=O)O [CBP462, (1-Tyr)(1-aminoundecanoic acid)(d-Phe-2,3,4,5,6-F)(d-Cha)] (H-Y[Aun][dPhe(F5)][dCha]-OH; N-terminus and C-terminus assumed) | – | – | >50 µM |
| NCCCCCCCCCCC(=O)N[C@H](Cc1c(F)c(F)c(F)c(F)c1F)C(=O)N[C@H](CC1CCCCC1)C(=O)O [CBP464, (1-aminoundecanoic acid)(d-Phe-2,3,4,5,6-F)(d-Cha)] (H-[Aun]-[dPhe(F5)]-[dCha]-OH; N-terminus and C-terminus assumed) | – | – | >50 µM |
| N[C@H](Cc1c(F)c(F)c(F)c(F)c1F)C(=O)N[C@H](CC1CCCCC1)C(=O)O [CBP470, (d-Phe-2,3,4,5,6-F)(d-Cha)] (H-[dPhe(F5)]-[dCha]-OH; N-terminus and C-terminus assumed) | – | – | >50 µM |
| N=C(N)NCCC[C@@H](NC(=O)[C@@H](CCCNC(=N)N)NC(=O)[C@@H](CCC(N)=O)NC(=O)[C@@H](CCCNC(=N)N)NC(=O)[C@@H](CCCNC(=N)N)NC(=O)[C@@H](CCCNC(=N)N)NC(=O)[C@@H](CC1CCCCC1)NC(=O)[C@@H](Cc1c(F)c(F)c(F)c(F)c1F)NC(=O)[C@@H](CO)NC(=O)[C@@H](Cc1c[nH]c2ccccc12)NC(=O)[C@@H](CO)NC(=O)[C@@H](CO)NC(=O)[C@H](N)Cc1ccc(O)cc1)C(=O)O [CBP481, (d-Tyr)(d-Ser)(d-Ser)(d-Trp)(d-Ser)(d-Phe-2,3,4,5,6-F)(d-Cha)(d-Arg)(d-Arg)(d-Arg)(d-Gln)(d-Arg)(d-Arg)] (H-[dY][dS][dS][dW][dS][dPhe(F5)][dCha][dR][dR][dR][dQ][dR][dR]-OH; N-terminus and C-terminus assumed) | – | – | >50 µM |
